The values below come from patent publication US8455497B2, “Inhibitors of aspartyl protease” (Vertex Pharmaceuticals Incorporated, priority 1999, dated 2013).

Assay [1] relates to HIV-1 (strain IIIB). In words: Antiviral activity assay in MT4 cells (propidium iodide based). The assay is classed as cell-based. The note with it: wild type HIV-1 virus, MT4 cells, read-out: Wildtype virus - IC50. The method, boiled down:
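MT4 cells infected with HIV-1 IIIB (MOI 100×TCID50, 1 hr, 37°C), diluted 6-fold into wells with serially diluted compound, incubated 5 days. Cells lysed with Nonidet-40; DNA content per well estimated by propidium iodide staining as the viability read-out, with mock-infected controls.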

In assay [2] the test system is D545701-14 multi protease inhibitor resistant virus. Kind of assay: Anti-viral activity against resistant virus D545701-14 in MT4 cells. The assay is classed as cell-based, HIV-1.
Assay [3] has as its system EP13 multi protease inhibitor resistant virus. Kind of assay: Anti-viral activity against resistant virus EP13 in MT4 cells. The assay is classed as cell-based, HIV-1. The method, boiled down:
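MT4 cells infected for 1 h at 37 °C, MOI 100×TCID50, then diluted 6-fold onto pre-diluted compound and cultured 5 days (5% CO2). Viable-cell DNA content estimated by propidium iodide. EP13 carries protease mutations M46I, L63P, A71V, V82F/L, I84V, no RT mutations.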

Where [4] appears, read: Human immunodeficiency virus 1, IIIB.
[5] abbreviates: Human immunodeficiency virus 1, MT4, read-out: D545701-14 mutant - IC50, D545701-14 multi protease inhibitor resistant virus, MT4 cells.
The mark [6] stands for this setting: Human immunodeficiency virus 1, MT4, read-out: EP13 mutant IC50, EP13 multi protease inhibitor resistant virus, MT4 cells.
The mark [7] stands for this setting: Human immunodeficiency virus 1, MT4, read-out: D545701-14 mutant - IC50.
The mark [8] stands for this setting: Human immunodeficiency virus 1, MT4, read-out: EP13 mutant IC50.
The mark [9] stands for this setting: D545701-14 multi protease inhibitor resistant virus, MT4 cells, read-out: D545701-14 mutant - IC50.
The mark [10] stands for this setting: EP13 multi protease inhibitor resistant virus, MT4 cells, read-out: EP13 mutant IC50.

Molecules are shown by their SMILES. Like-named read-outs stand apart in the source and are kept apart here. Bounds are passed on as bounds.

What is called IC50 is the concentration at which inhibition is half-maximal. With `CC(C)CN(C[C@@H](O)[C@H](Cc1ccc(Oc2ccc(C#N)cn2)cc1)NC(=O)O[C@H]1CO[C@H]2OCC[C@H]21)S(=O)(=O)c1ccc2c(c1)OCO2` [Compound 335, (3R,3aS,6aR)-hexahydrofuro[2,3-b]furan-3-yl (1S,2R)-3-[(1,3-benzodioxol-5-ylsulfonyl)(isobutyl)amino]-1-{4-[(S-cyano-2-pyridinyl)oxy]benzyl}-2-hydroxypropylcarbamate], the IC50 in assay [1] (setting [4]), in assay [2] (setting [5]) and in assay [3] (setting [6]) was 1 to 10 nM in each case.
As to `CC(C)CN(C[C@@H](O)[C@H](Cc1ccc(Oc2ccc([N+](=O)[O-])cc2[N+](=O)[O-])cc1)NC(=O)O[C@H]1CO[C@H]2OCC[C@H]21)S(=O)(=O)c1ccc2c(c1)OCO2` [Compound 336, (3R,3aS,6aR)-hexahydrofuro[2,3-b]furan-3-yl (1S,2R)-3-[(1,3-benzodioxol-5-ylsulfonyl)(isobutyl)amino]-1-[4-(2,4-dinitrophenoxy)benzyl]-2-hydroxypropylcarbamate], the concentration for half-maximal inhibition (IC50) in assay [1] (setting [4]), in assay [2] (setting [5]) and in assay [3] (setting [6]) was 1 to 10 nM each time.
For `CC(C)CN(C[C@@H](O)[C@H](Cc1ccc(OCc2cccc(C#N)c2)cc1)NC(=O)O[C@H]1CO[C@H]2OCC[C@H]21)S(=O)(=O)c1ccc2c(c1)OCCO2` [Compound 338, (3R,3aS,6aR)-hexahydrofuro[2,3-b]furan-3-yl (1S,2R)-1-{4-[(3-cyanobenzyl)oxy]benzyl}-3-[(2,3-dihydro-1,4-benzodioxin-6-ylsulfonyl)(isobutyl)amino]-2-hydroxypropylcarbamate], the half-maximal inhibitory concentration (IC50) in assay [1] (setting [4]), in assay [2] (setting [5]) and in assay [3] (setting [6]) was 1 to 10 nM throughout.
Consider `CC(C)CN(C[C@@H](O)[C@H](Cc1ccc(OCc2cccc(C#N)c2)cc1)NC(=O)O[C@H]1CO[C@H]2OCC[C@H]21)S(=O)(=O)c1ccc2c(c1)OC(F)(F)O2` [Compound 342, (3R,3aS,6aR)-hexahydrofuro[2,3-b]furan-3-yl (1S,2R)-1-{4-[(3-cyanobenzyl)oxy]benzyl}-3-[[(2,2-difluoro-1,3-benzodioxol-5-yl)sulfonyl](isobutyl)amino]-2-hydroxypropylcarbamate], for which the IC50 in assay [1] (setting [4]), in assay [2] (setting [5]) and in assay [3] (setting [6]) was 10 to 100 nM in each case.
`CC(=O)Oc1ccc(S(=O)(=O)N(CC(C)C)C[C@@H](O)[C@H](Cc2ccc(OCc3csc(C)n3)cc2)NC(=O)O[C@H]2CO[C@H]3OCC[C@H]32)cc1C` [Compound 347, 4-{[((2R,3S)-3-({[(3R,3aS,6aR)-hexahydrofuro[2,3-b]furan-3-yloxy]carbonyl}amino)-2-hydroxy-4-{4-[(2-methyl-1,3-thiazol-4-yl)methoxy]phenyl}butyl)(isobutyl)amino]sulfonyl}-2-methylphenyl acetate]: the half-inhibitory concentration (IC50) in assay [1] (setting [4]), in assay [2] (setting [5]) and in assay [3] (setting [6]) was 1 to 10 nM in each case.
Take `Cc1nc(COc2ccc(C[C@H](NC(=O)O[C@H]3CO[C@H]4OCC[C@H]43)[C@H](O)CN(CC(C)C)S(=O)(=O)c3ccc(O)c(C)c3)cc2)cs1` [Compound 348, (3R,3aS,6aR)-hexahydrofuro[2,3-b]furan-3-yl (1S,2R)-2-hydroxy-3-[[(4-hydroxy-3-methylphenyl)sulfonyl](isobutyl)amino]-1-{4-[(2-methyl-1,3-thiazol-4-yl)methoxy]benzyl}propylcarbamate]: the IC50 in assay [1] (setting [4]), in assay [2] (setting [5]) and in assay [3] (setting [6]) was 1 to 10 nM throughout.
As to `CC(C)CN(C[C@@H](O)[C@H](Cc1ccc(OS(=O)(=O)c2ccc3c(c2)OCO3)cc1)NC(=O)O[C@H]1CO[C@H]2OCC[C@H]21)S(=O)(=O)c1ccc2c(c1)OCO2` [Compound 349, 4-{(2S,3R)-2-({[(3R,3aS,6aR)-hexahydrofuro[2,3-b]furan-3-yloxy]carbonyl}amino)-4-[(1,3-benzodioxol-5-ylsulfonyl)(isobutyl)amino]-3-hydroxybutyl}phenyl 1,3-benzodioxole-5-sulfonate], the 50% inhibitory concentration (IC50) in assay [1] (setting [4]), in assay [2] (setting [5]) and in assay [3] (setting [6]) was 1 to 10 nM each time.
Regarding `CC(C)CN(C[C@@H](O)[C@H](Cc1ccc(OCCc2ccccc2)cc1)NC(=O)O[C@H]1CO[C@H]2OCC[C@H]21)S(=O)(=O)c1ccc2c(c1)OCO2` [Compound 352, (3R,3aS,6aR)hexahydrofuro[2,3-b]furan-3-yl (1S,2R)-3[(1,3-benzodioxol-5-ylsulfonyl)(isobutyl)amino]-2-hydroxy-1-[4-(phenethyloxy)benzyl]propylcarbamate], the half-maximal inhibitory concentration (IC50) in assay [1] (setting [4]) is less than 1 nM; in assay [2] (setting [5]), 1 to 10 nM; in assay [3] (setting [6]) it was less than 1 nM.
Regarding `CC(=O)NCCOc1ccc(C[C@H](NC(=O)O[C@H]2CO[C@H]3OCC[C@H]32)[C@H](O)CN(CC(C)C)S(=O)(=O)c2ccc3c(c2)OCO3)cc1` [Compound 355, (3R,3aS,6aR)hexahydrofuro[2,3-b]furan-3-yl (1S,2R)-3-[(1,3-benzodioxol-5-ylsulfonyl)(isobutyl)amino]-2-hydroxy-1-[4-(2-[acetylamino]ethoxy)benzyl]propylcarbamate], the half-maximal inhibitory concentration (IC50) in assay [1] (setting [4]), in assay [2] (setting [5]) and in assay [3] (setting [6]) was 10 to 100 nM throughout.
As for `COC(=O)NCCOc1ccc(C[C@H](NC(=O)O[C@H]2CO[C@H]3OCC[C@H]32)[C@H](O)CN(CC(C)C)S(=O)(=O)c2ccc3c(c2)OCO3)cc1` [Compound 356, (3R,3aS,6aR)hexahydrofuro[2,3-b]furan-3-yl (1S,2R)-3-[(1,3-benzodioxol-5-ylsulfonyl)(isobutyl)amino]-2-hydroxy-1-[4-(2-[(methoxycarbonyl)amino]ethoxy)benzyl]propylcarbamate], the IC50 was 1 to 10 nM in assay [1] (setting [4]), less than 1 nM in assay [2] (setting [7]) and 1 to 10 nM in assay [3] (setting [8]).
Regarding `CC(C)CN(C[C@@H](O)[C@H](Cc1ccc(OCCNS(C)(=O)=O)cc1)NC(=O)O[C@H]1CO[C@H]2OCC[C@H]21)S(=O)(=O)c1ccc2c(c1)OCO2` [Compound 357, (3R,3aS,6aR)hexahydrofuro[2,3-b]furan-3-yl (1S,2R)-3-[(1,3-benzodioxol-5-ylsulfonyl)(isobutyl)amino]-2-hydroxy-1-[4-(2-[(methylsulfonyl)amino]ethoxy)benzyl]propylcarbamate], the IC50 in assay [1] (setting [4]) is 10 to 100 nM; in assay [2] (setting [7]), 10 to 100 nM; in assay [3] (setting [8]) it was 1 to 10 nM.
With `CNC(=O)NCCOc1ccc(C[C@H](NC(=O)O[C@H]2CO[C@H]3OCC[C@H]32)[C@H](O)CN(CC(C)C)S(=O)(=O)c2ccc3c(c2)OCO3)cc1` [Compound 358, (3R,3aS,6aR)hexahydrofuro[2,3-b]furan-3-yl (1S,2R)-3-[(1,3-benzodioxol-5-ylsulfonyl)(isobutyl)amino]-2-hydroxy-1-[4-(2-[([methylamino]carbonyl)amino]ethoxy)benzyl]propylcarbamate], the concentration for half-maximal inhibition (IC50) in assay [1] (setting [4]), in assay [2] (setting [7]) and in assay [3] (setting [8]) was 10 to 100 nM in each case.
Turning to `CC(C)CN(C[C@@H](O)[C@H](Cc1ccc(OCCN(C)C)cc1)NC(=O)O[C@H]1CO[C@H]2OCC[C@H]21)S(=O)(=O)c1ccc2c(c1)OCO2` [Compound 359, (3R,3aS,6aR)hexahydrofuro[2,3-b]furan-3-yl (1S,2R)-3-[(1,3-benzodioxol-5-ylsulfonyl)(isobutyl)amino]-2-hydroxy-1-[4-(2-[dimethylamino]ethoxy)benzyl]propylcarbamate], the IC50 in assay [1] (setting [4]), in assay [2] (setting [5]) and in assay [3] (setting [6]) was 10 to 100 nM throughout.
Consider `CNC(=O)OCCCC(C)(C)CN(C[C@@H](O)[C@H](Cc1ccc(OCc2ccccc2)cc1)NC(=O)OC1CO[C@H]2OCC[C@@H]12)S(=O)(=O)c1ccc2c(c1)OCO2` (stereo partly drawn) [Compound 361], for which the values for the IC50 in assay [1] (setting [4]), in assay [2] (setting [5]) and in assay [3] (setting [6]) were 1 to 10 nM, 10 to 100 nM and 10 to 100 nM, respectively.
Regarding `CC(C)CN(C[C@@H](O)[C@H](Cc1ccc(OCc2ccccc2)cc1)NC(=O)O[C@H]1CO[C@H]2OCC[C@H]21)S(=O)(=O)c1ccc2c(c1)OCCO2` [Compound 365], the IC50 in assay [1] (setting [4]), in assay [2] (setting [5]) and in assay [3] (setting [6]) was 1 to 10 nM each time.
For the molecule `CC(C)CN(C[C@@H](O)[C@H](Cc1ccc(OCc2cccc(C#N)c2)cc1)NC(=O)O[C@H]1CO[C@H]2OCC[C@H]21)S(=O)(=O)c1ccc2c(c1)OCO2` [Compound 367, (3R,3aS,6aR)-Hexahydrofuro[2,3-b]furan-3-yl-N (1S,2R)-1-[4-(3-cyanobenzyloxy)-benzyl]-3-i-butyl-[(3,4-methylenedioxyphenyl)sulfonyl]-amino-2-hydroxypropyl-carbamate], the IC50 in assay [1] is less than 1 nM; in assay [2] (setting [9]), 1 to 10 nM; in assay [3] (setting [10]), less than 1 nM.
`Cc1nc(COc2ccc(C[C@H](NC(=O)O[C@H]3CO[C@H]4OCC[C@H]43)[C@H](O)CN(CC(C)C)S(=O)(=O)c3ccc4c(c3)OCO4)cc2)cs1` [Compound 368]: the IC50 in assay [1] is less than 1 nM; in assay [2] (setting [9]) it was 1 to 10 nM; in assay [3] (setting [10]) it was less than 1 nM.
With `CC(C)CN(C[C@@H](O)[C@H](Cc1ccc(OCc2noc(C(C)(C)C)n2)cc1)NC(=O)O[C@H]1CO[C@H]2OCC[C@H]21)S(=O)(=O)c1ccc2c(c1)OCO2` [Compound 370], the half-maximal inhibitory concentration (IC50) in assay [1] (setting [4]) is less than 1 nM; in assay [2] (setting [5]) it was 1 to 10 nM; in assay [3] (setting [6]) it was 1 to 10 nM.
